Consider 17 molecules from PMC11617668, “Developing Allosteric Inhibitors of SARS‐CoV‐2 RNA‐Dependent RNA Polymerase” (Chemmedchem, 2024).

The nature of one series: in vitro. To be noted: human.
The subject of series [1] is SARS‐CoV‐2. The following applies: Severe acute respiratory syndrome coronavirus 2, Calu-3, 72 h.
Procedure: (§1) Briefly, two‐fold fold serial dilutions of compounds were added in triplicate in a 384‐well plate with 15,000 Calu‐3 cells in DMEM medium with 2 % FBS, 100 U of penicillin/ml and 100 μg of streptomycin/ml (all Merck). After 1 h incubation SARS‐CoV‐2 was added at multiplicity of infection 0.01. Following three days incubation at 37 °C in 5 % CO2 the cell viability was determined by addition of XTT solution (Sigma‐Aldrich) for 4 h and the absorbance was measured using EnVision plate reader (Perkin Elmer). Drug concentrations required to reduce viral cytopathic effect by 50 % (EC50) were calculated using nonlinear regression from plots of percentage cell viability versus log10 drug concentration using GraphPad Prism v.9.0.0 (GraphPad Software). Cytotoxicity was evaluated by incubating the same two‐fold serial dilutions of each compound with Calu‐3 cells as above but without virus. Following three days of incubation at 37 °C in 5 % CO2, the cell viability was determined by the addition of XTT solution as above. The compound concentrations resulting in a 50 % reduction of absorbance (CC50) were calculated from plots of the percentage of absorbance versus log10 drug concentration as above.
The target of series [2] is SARS‐CoV‐2 RdRp complex (nsp12, nsp7, nsp8) (Severe acute respiratory syndrome coronavirus 2, UniProt P0DTD1). As to the kind of experiment: Fluorescence-based RdRp polymerase assay (SYBR Green I RNA extension). The class given is biochemical.
The nature of series [3]: Solubility in water (stated in words). The class given is physicochemical.
The nature of series [4]: Kinetic solubility test in enzymatic assay medium. To be noted: aqueous HEPES buffer with 5 % DMSO, pH 8, aqueous with cosolvent or surfactant or cyclodextrin, kinetic from dmso stock. The format is physicochemical. How it is done: Kinetic solubility tests were performed in the medium used for the enzymatic assay–aqueous solution of HEPES buffer with 5 % DMSO. […] This poor aqueous solubility represents a big hurdle in the development of potential antivirals and the improvement of solubility will be considered in further structural optimization efforts of this class of compounds.

Series [5] concerns SARS‐CoV‐2. The following applies: cited from earlier work.
A further series has as its system COVID‐19. The following applies: cited from earlier work.
Another series deals with Calu‐3 cells. As to the kind of experiment: Cytotoxicity in Calu-3 cells without virus (XTT). To be noted: Calu‐3 cells, no virus, three days. (In general: Tetrazolium dyes change colour on reduction, which living cells bring about.)
Series [6] is described as follows: Cytotoxicity in Calu-3 cells without virus (XTT). To be noted: human, CC50, Calu‐3 cells, no virus, three days.
Procedure: as §1
The mark [7] stands for this setting: 50 min, read-out: residual activity (RA) of the SARS‐CoV‐2 RdRp complex.
The mark [8] stands for this setting: read-out: residual activity (RA) of SARS‐CoV‐2 RdRp.

In brackets after ≈: the same amount, converted by molar mass. Read-outs that look alike come from different tables or passages of the source.

A word on the EC50: it is the concentration giving half of the maximal effect. Read a high EC50 as weaker potency. The solubility (kinetic) is solubility judged after dilution from a stock solution rather than from solid.

Procedure for Calu‐3 cells: as §1
Procedure for in vitro: as §1

As for `CC(C)OC(=O)c1cc(NC(=O)Nc2cccc([N+](=O)[O-])c2)cc(C(=O)OC(C)C)c1` [Compound 1], the CC50 at 3 days in “in vitro” was 23 µM. This molecule also returned an EC50 with SARS‐CoV‐2 [1] above 23 µM. For the same molecule, in [2] (setting [7]), the remaining activity at 10 µM was determined as 57%. Besides, in series [3], the solubility in water entry was “poorly soluble in water”.

`COC(=O)c1cc(NC(=O)Nc2cccc(C(F)(F)F)c2)cc(C(=O)OC)c1` [Compound 9, Dimethyl 5‐(3‐(3‐Trifluoromethylphenyl)ureido)isophthalate] gave a CC50 at 3 days in “in vitro” of 10.6 µM. Also, in the series with SARS‐CoV‐2 [1], the EC50 was above 10 µM. In addition, the remaining activity at 10 µM in series [2] (setting [7]) turned out to be 70%.

Molecule `COC(=O)c1cc(NC(=O)Nc2cc(C(F)(F)F)cc(C(F)(F)F)c2)cc(C(=O)OC)c1` [Compound 11, Dimethyl 5‐(3‐(3,5‐Bis(trifluoromethyl)phenyl)ureido)isophthalate] showed a CC50 at 3 days in “in vitro” of 5.1 µM. In addition, the EC50 with SARS‐CoV‐2 [1] was above 5 µM. For the same molecule, the remaining activity at 10 µM in series [2] (setting [7]) came to 65%.

In “in vitro”, `O=C(Nc1cccc([N+](=O)[O-])c1)Nc1cc(C(F)(F)F)cc(C(F)(F)F)c1` [Compound 19, 1‐(3,5‐Bis(trifluoromethyl)phenyl)‐3‐(3‐Nitrophenyl)urea] yielded a CC50 at 3 days of 3.4 µM. In the series on SARS‐CoV‐2 [1], the half-maximal effective concentration (EC50) is above 3 µM. The remaining activity at 10 µM in series [2] (setting [7]) amounted to 62%.

Molecule `O=C(Nc1cc(Cl)cc(Cl)c1)Nc1cccc(C(F)(F)F)c1` [Compound 47, 1‐(3,5‐Dichlorophenyl)‐3‐(3‐(Trifluoromethyl)phenyl)urea] gave a CC50 at 3 days in the series “in vitro” of 0.49 µM. Further, in the series with SARS‐CoV‐2 [1], the concentration for a half-maximal effect (EC50) is above 0.49 µM. In series [4], this molecule came in with a kinetic solubility below 2 µM. Further, the remaining activity at 10 µM in series [2] (setting [7]) worked out at 45%.

For the molecule `FC(F)(F)c1ccc2nc(-c3nc4cc(Cl)c(Cl)cc4[nH]3)[nH]c2c1` [Compound 55, 5,6‐Dichloro‐6′‐(Trifluoromethyl)‐1 H ,1′H‐2,2′‐Bibenzo[d]imidazole], the CC50 at 3 days in “in vitro” amounted to 2.1 µM. In the series with SARS‐CoV‐2 [1], this molecule displayed a concentration for a half-maximal effect (EC50) above 2.1 µM. Also, the kinetic solubility in [4] was 2.9 ± 0.6 µM (≈ 1.08 µg/mL). Further, the remaining activity at 10 µM in [2] (setting [7]) was 42%.

In the series “in vitro”, `FC(F)(F)c1cccc(Nc2nc3cc(Cl)c(Cl)cc3[nH]2)c1` [Compound 56, 5,6‐Dichloro‐N‐(3‐(Trifluoromethyl)phenyl)‐1H‐Benzo[d]imidazol‐2‐Amine] returned a CC50 at 3 days of 43 µM. Also, the EC50 with SARS‐CoV‐2 [1] is above 43 µM. In addition, the kinetic solubility in series [4] was 7 ± 0.1 µM (≈ 2.42 µg/mL). In series [2] (setting [7]), the remaining activity at 10 µM amounted to 60%.

As for `O=C(Nc1cccc(C(F)(F)F)c1)Nc1nc2cc(Cl)c(Cl)cc2[nH]1` [Compound 59, 1‐(5,6‐Dichloro‐1H‐Benzo[d]imidazol‐2‐yl)‐3‐(3‐(Trifluoromethyl)phenyl)urea], the CC50 at 3 days in “in vitro” turned out to be 23 µM. The molecule further yielded an EC50 in the series on SARS‐CoV‐2 [1] of around 10 µM. Further, in [4], the kinetic solubility amounted to 2.53 ± 0.03 µM (≈ 0.985 µg/mL). For the same molecule, in [2] (setting [7]), the remaining activity at 10 µM came out at 50%.

Take `O=C(Nc1cc(Cl)cc(Cl)c1)Nc1nc2ccc(C(F)(F)F)cc2[nH]1` [Compound 60, 1‐(3,5‐Dichlorophenyl)‐3‐(6‐(Trifluoromethyl)‐1H‐Benzo[d]imidazol‐2‐yl)urea]: in “in vitro”, the CC50 at 3 days worked out at 0.65 µM. Also, in the series with SARS‐CoV‐2 [1], the half-maximal effective concentration (EC50) was above 0.65 µM. In [4], this molecule gave a solubility (kinetic) below 2.1 µM. Besides, the remaining activity at 10 µM in series [2] (setting [7]) was found to be 28%.

In the case of `O=C(Nc1ccccc1)Nc1ccc(-c2ccc(C(=O)[C@@H]3CCC[C@H]3C(=O)O)cc2)cc1` [Compound A922500, A922500, reference compound], in the series with SARS‐CoV‐2 [5], the “activity in cell assays against the virus” value (from here on “activity in cell assays”) was “active”. The remaining activity at 10 µM in series [2] (setting [7]) is 100%.

Consider `O=C(Nc1cc(C(F)(F)F)cc(C(F)(F)F)c1)Nc1ccc(Br)cc1-c1nnn[nH]1` [Endovion, endovion, reference compound], for which the CC50 at 3 days in the series “in vitro” was above 64 µM. In the series on SARS‐CoV‐2 [1], this molecule showed an EC50 above 64 µM. The “activity in cell assays” value with SARS‐CoV‐2 [5] is on record as “active”. Moreover, the remaining activity at 10 µM in series [2] (setting [7]) worked out at 40%. Also, the solubility in water entry in series [3] was “poorly soluble in water”.

`CC(C)C(=O)OC[C@H]1O[C@@H](n2ccc(NO)nc2=O)[C@H](O)[C@@H]1O` [Molnupiravir, molnupiravir]: the “post‐hospitalization mortality rate” value with COVID‐19 (30‐day‐long study, patients with moderate COVID‐19, placebo 9.7 %) is 6.8%.

Regarding `CCC(CC)COC(=O)[C@H](C)N[P@](=O)(OC[C@H]1O[C@@](C#N)(c2ccc3c(N)ncnn23)[C@H](O)[C@@H]1O)Oc1ccccc1` [Remdesivir, remdesivir, reference compound], the half-maximal effective concentration (EC50) with SARS‐CoV‐2 [1] is 0.11 µM. For the same molecule, in series [2] (setting [8]), the remaining activity at 10 µM stood at 62%, the remaining activity at 50 µM is 40% and the remaining activity at 100 µM was determined as 25%. The molecule further displayed a CC50 with Calu‐3 cells above 5 µM. In [6], the CC50 at 3 days is above 3.2 µM. In addition, in the series with COVID‐19 (Adaptive COVID Treatment Trial (ACTT), placebo 15.2 %), the “mortality among hospitalized adults” value was 11.4%. Further, the “improvement compared with placebo” value in the series on COVID‐19 (Hubei (China) study) was “no statistically significant improvement”.

`NC(=O)c1nc(F)c[nH]c1=O` [favipiravir]: the clinical recovery rate entry in the series with COVID‐19 (open‐label randomized trial in China, COVID‐19 patients) is given as “did not significantly improve”.

With `COc1cc(NC(=O)Nc2cccc(CNC(=O)O[C@H]3CCOC3)c2)ccc1-c1cnco1` [merimepodib, reference compound], the viral replication entry in the series on SARS‐CoV‐2 [5] (in combination with remdesivir) is listed as “completely suppress viral replication”. For the same molecule, the remaining activity at 10 µM in [2] (setting [7]) worked out at 100%.

Turning to `CNC(=O)c1cc(Oc2ccc(NC(=O)Nc3ccc(Cl)c(C(F)(F)F)c3)c(F)c2)ccn1` [regorafenib, reference compound], the “activity in cell assays” value in the series on SARS‐CoV‐2 [5] is on record as “active”. Moreover, the remaining activity at 10 µM in series [2] (setting [7]) was determined as 76%.

Take `CNC(=O)c1cc(Oc2ccc(NC(=O)Nc3ccc(Cl)c(C(F)(F)F)c3)cc2)ccn1` [sorafenib]: the cell infection result with SARS‐CoV‐2 [5] is listed as “strongly inhibited cell infection”.
